# According to paper PMC5218480 (PLoS ONE, 2017):
# Test system: MV-4-11 cells
# Assay: Gene expression microarray analysis (Affymetrix PrimeView) and GSEA
# Assay type: cell-based, human
# Design: RFU PODN (11730768_x_at) / Fold change /veh PODN (11730768_x_at) / RFU LINC00158 (11744669_a_at) / Fold change /veh LINC00158 (11744669_a_at) / RFU DUSP10 (11751237_a_at) / Fold change /veh DUSP10 (11751237_a_at) / RFU ID3 (11757404_x_at) / Fold change /veh ID3 (11757404_x_at) / RFU PLEKHG5 (11737974_s_at) / Fold change /veh PLEKHG5 (11737974_s_at) / RFU LRRC4B (11730491_at) / Fold change /veh LRRC4B (11730491_at) / RFU GIMAP4 (11747438_a_at) / Fold change /veh GIMAP4 (11747438_a_at) / RFU KRT8 (11758183_x_at) / Fold change /veh KRT8 (11758183_x_at) / RFU CNN1 (11734310_a_at) / Fold change /veh CNN1 (11734310_a_at) / RFU VPS37D (11726825_at) / Fold change /veh VPS37D (11726825_at) / RFU C10orf10 (11716522_x_at) / Fold change /veh C10orf10 (11716522_x_at) / RFU KIR2DL2 /// KIR2DL4 /// KIR2DL5A /// KIR2DL5B /// KIR2DS1 /// KIR2DS2 /// KIR2DS3 /// KIR2DS4 /// KIR3DL3 /// KIR3DL3 /// KIR3DS1 (11738374_at) / Fold change /veh KIR2DL2 /// KIR2DL4 /// KIR2DL5A /// KIR2DL5B /// KIR2DS1 /// KIR2DS2 /// KIR2DS3 /// KIR2DS4 /// KIR3DL3 /// KIR3DL3 /// KIR3DS1 (11738374_at) / RFU C1QL1 (11718748_at) / Fold change /veh C1QL1 (11718748_at) / RFU TMPRSS4 (11747572_a_at) / Fold change /veh TMPRSS4 (11747572_a_at) / RFU HAMP (11756126_x_at) / Fold change /veh HAMP (11756126_x_at) / RFU RNFT2 (11725882_a_at) / Fold change /veh RNFT2 (11725882_a_at) / RFU NR4A2 (11747474_a_at) / Fold change /veh NR4A2 (11747474_a_at) / RFU ABCC12 (11746883_a_at) / Fold change /veh ABCC12 (11746883_a_at) / RFU TMEM136 (11760407_x_at) / Fold change /veh TMEM136 (11760407_x_at) / RFU CLDN22 /// WWC2 (11732394_at) / Fold change /veh CLDN22 /// WWC2 (11732394_at) / RFU HLA-DPB1 (11760878_x_at) / Fold change /veh HLA-DPB1 (11760878_x_at) / RFU SPINT1 (11716480_a_at) / Fold change /veh SPINT1 (11716480_a_at) / RFU GAP43 (11754022_s_at) / Fold change /veh GAP43 (11754022_s_at) / RFU A4GNT (11735810_at) / Fold change /veh A4GNT (11735810_at) / RFU PRB3 (11715151_x_at) / Fold change /veh PRB3 (11715151_x_at) / RFU TUBB4B (11761932_at) / Fold change /veh TUBB4B (11761932_at) / RFU CAPN14 (11732068_a_at) / Fold change /veh CAPN14 (11732068_a_at) / RFU TMCC2 (11721928_a_at) / Fold change /veh TMCC2 (11721928_a_at) / RFU IRGQ (11745062_a_at) / Fold change /veh IRGQ (11745062_a_at) / RFU FAM174B (11720279_a_at) / Fold change /veh FAM174B (11720279_a_at) / RFU TMPRSS4 (11748680_a_at) / Fold change /veh TMPRSS4 (11748680_a_at) / RFU FAM212B (11763350_a_at) / Fold change /veh FAM212B (11763350_a_at) / RFU PLEKHG5 (11743358_a_at) / Fold change /veh PLEKHG5 (11743358_a_at) / RFU ZSCAN30 (11745921_a_at) / Fold change /veh ZSCAN30 (11745921_a_at) / RFU CMKLR1 (11741424_a_at) / Fold change /veh CMKLR1 (11741424_a_at) / RFU LOC101060620 /// MAPK8IP1 (11723275_at) / Fold change /veh LOC101060620 /// MAPK8IP1 (11723275_at) / RFU SPTSSB (11747773_x_at) / Fold change /veh SPTSSB (11747773_x_at) / RFU PRSS12 (11739890_at) / Fold change /veh PRSS12 (11739890_at) / RFU BIN1 (11741810_x_at) / Fold change /veh BIN1 (11741810_x_at) / RFU WNT11 (11732464_a_at) / Fold change /veh WNT11 (11732464_a_at) / RFU C10orf10 (11716521_a_at) / Fold change /veh C10orf10 (11716521_a_at) / RFU C5orf56 (11738089_at) / Fold change /veh C5orf56 (11738089_at) / RFU CYB561 (11721691_x_at) / Fold change /veh CYB561 (11721691_x_at) / RFU ANKRD19P (11752326_a_at) / Fold change /veh ANKRD19P (11752326_a_at) / RFU OR2T12 /// OR2T33 /// OR2T8 (11738714_s_at) / Fold change /veh OR2T12 /// OR2T33 /// OR2T8 (11738714_s_at) / RFU VCAN (11748164_a_at) / Fold change /veh VCAN (11748164_a_at) / RFU JSRP1 (11732532_at) / Fold change /veh JSRP1 (11732532_at) / RFU KRTAP10-11 (11738290_x_at) / Fold change /veh KRTAP10-11 (11738290_x_at) / RFU MYO3A (11730013_a_at) / Fold change /veh MYO3A (11730013_a_at) / RFU EBF3 (11725865_a_at) / Fold change /veh EBF3 (11725865_a_at) / RFU CAMK2N1 (11719241_x_at) / Fold change /veh CAMK2N1 (11719241_x_at) / RFU C5orf56 (11738088_a_at) / Fold change /veh C5orf56 (11738088_a_at) / RFU OLFML3 (11715873_a_at) / Fold change /veh OLFML3 (11715873_a_at) / RFU LOC100653217 /// NTM (11731650_a_at) / Fold change /veh LOC100653217 /// NTM (11731650_a_at) / RFU MAPK11 (11762145_a_at) / Fold change /veh MAPK11 (11762145_a_at) / RFU FIZ1 (11724087_x_at) / Fold change /veh FIZ1 (11724087_x_at) / RFU OASL (11726364_x_at) / Fold change /veh OASL (11726364_x_at) / RFU SOX15 (11748057_x_at) / Fold change /veh SOX15 (11748057_x_at) / RFU CD79A (11719716_a_at) / Fold change /veh CD79A (11719716_a_at) / RFU HIST1H1D (11736915_at) / Fold change /veh HIST1H1D (11736915_at) / RFU CASKIN2 (11723855_a_at) / Fold change /veh CASKIN2 (11723855_a_at) / RFU LOC730098 (11760151_x_at) / Fold change /veh LOC730098 (11760151_x_at) / RFU OR4N2 (11742367_at) / Fold change /veh OR4N2 (11742367_at) / RFU PRRT2 (11749266_a_at) / Fold change /veh PRRT2 (11749266_a_at) / RFU SNX32 (11753110_a_at) / Fold change /veh SNX32 (11753110_a_at) / RFU CDHR5 (11726645_a_at) / Fold change /veh CDHR5 (11726645_a_at) / RFU RCAN1 (11760418_a_at) / Fold change /veh RCAN1 (11760418_a_at) / RFU FAM167A (11723789_a_at) / Fold change /veh FAM167A (11723789_a_at) / RFU FAM26E (11764081_at) / Fold change /veh FAM26E (11764081_at) / RFU ISYNA1 (11749810_s_at) / Fold change /veh ISYNA1 (11749810_s_at) / RFU ACY1 (11761880_at) / Fold change /veh ACY1 (11761880_at) / RFU 11764098_at / Fold change /veh 11764098_at / RFU SAMD14 (11745864_x_at) / Fold change /veh SAMD14 (11745864_x_at) / RFU NPB (11741838_a_at) / Fold change /veh NPB (11741838_a_at) / RFU TMPRSS6 (11731388_a_at) / Fold change /veh TMPRSS6 (11731388_a_at) / RFU KRTAP10-2 (11738614_at) / Fold change /veh KRTAP10-2 (11738614_at) / RFU ARHGAP8 /// PRR5-ARHGAP8 (11727945_x_at) / Fold change /veh ARHGAP8 /// PRR5-ARHGAP8 (11727945_x_at) / RFU KRTAP5-7 /// NADSYN1 (11734609_at) / Fold change /veh KRTAP5-7 /// NADSYN1 (11734609_at) / RFU RASL12 (11751679_a_at) / Fold change /veh RASL12 (11751679_a_at) / RFU CDKN2B (11736163_a_at) / Fold change /veh CDKN2B (11736163_a_at) / RFU PRF1 (11729649_at) / Fold change /veh PRF1 (11729649_at) / RFU, ZNF638 /// ZNF638-IT1 / Fold change vs veh, ZNF638 /// ZNF638-IT1 / RFU, PANK3 / Fold change vs veh, PANK3 / RFU, SH3YL1 / Fold change vs veh, SH3YL1 / RFU, ZEB2 / Fold change vs veh, ZEB2 / RFU, NRIP1 / Fold change vs veh, NRIP1 / RFU, PTTG1IP / Fold change vs veh, PTTG1IP / RFU, CAPN2 / Fold change vs veh, CAPN2 / RFU, MED14 / Fold change vs veh, MED14 / RFU, SNORA58 / Fold change vs veh, SNORA58 / RFU, C1orf63 / Fold change vs veh, C1orf63 / RFU, LRRFIP1 / Fold change vs veh, LRRFIP1 / RFU, NDUFAF7 / Fold change vs veh, NDUFAF7 / RFU, SLC12A2 / Fold change vs veh, SLC12A2 / RFU, IBTK / Fold change vs veh, IBTK / RFU, ESF1 / Fold change vs veh, ESF1 / Fold change vs veh, TMEM50B / RFU, TAOK1 / Fold change vs veh, TAOK1 / RFU, ACBD3 / Fold change vs veh, ACBD3 / RFU, TMA16 / Fold change vs veh, TMA16 / RFU, RWDD3 / Fold change vs veh, RWDD3 / RFU, BCAT1 / Fold change vs veh, BCAT1 / RFU, EDEM3 / Fold change vs veh, EDEM3 / RFU, TMEM33 / Fold change vs veh, TMEM33 / RFU, WDR75 / Fold change vs veh, WDR75 / RFU, AHCTF1 / Fold change vs veh, AHCTF1 / RFU, TFRC / Fold change vs veh, TFRC / RFU, ZDHHC17 / Fold change vs veh, ZDHHC17 / RFU, NOM1 / Fold change vs veh, NOM1 / RFU, ARL8B / Fold change vs veh, ARL8B / RFU, ZBTB11 / Fold change vs veh, ZBTB11 / RFU, TAMM41 / Fold change vs veh, TAMM41 / RFU, KIAA1704 /// LOC100996395 / Fold change vs veh, KIAA1704 /// LOC100996395 / RFU, ING1 / Fold change vs veh, ING1 / RFU, TRMT61B / Fold change vs veh, TRMT61B / RFU, FUBP3 / Fold change vs veh, FUBP3 / RFU, TP53 / Fold change vs veh, TP53 / RFU, TNKS2 / Fold change vs veh, TNKS2 / RFU, ZFP14 / Fold change vs veh, ZFP14 / RFU, ACTR2 / Fold change vs veh, ACTR2 / RFU, PPP3R1 / Fold change vs veh, PPP3R1 / RFU, PIK3R1 / Fold change vs veh, PIK3R1 / RFU, HNRNPA1 / Fold change vs veh, HNRNPA1 / RFU, RNF170 / Fold change vs veh, RNF170 / RFU, ZNF28 / Fold change vs veh, ZNF28 / RFU, RNGTT / Fold change vs veh, RNGTT / RFU, OGT / Fold change vs veh, OGT / RFU, BRD1 / Fold change vs veh, BRD1 / RFU, MARS / Fold change vs veh, MARS / RFU, ZNF655 / Fold change vs veh, ZNF655 / RFU, FAHD1 / Fold change vs veh, FAHD1 / RFU, BDP1 / Fold change vs veh, BDP1 / RFU, LRRCC1 / Fold change vs veh, LRRCC1 / RFU, ARID1A / Fold change vs veh, ARID1A / RFU, ZNF146 / Fold change vs veh, ZNF146 / RFU, ZNF330 / Fold change vs veh, ZNF330 / RFU, GPN3 / Fold change vs veh, GPN3 / RFU, C9orf123 / Fold change vs veh, C9orf123 / RFU, N4BP2L2 / Fold change vs veh, N4BP2L2 / RFU, ARFIP1 / Fold change vs veh, ARFIP1 / RFU, FAM179B / Fold change vs veh, FAM179B / RFU, BCL10 / Fold change vs veh, BCL10 / RFU, UHRF1BP1L / Fold change vs veh, UHRF1BP1L / RFU, BET1 / Fold change vs veh, BET1 / RFU, CNOT2 / Fold change vs veh, CNOT2 / RFU, ZNF268 / Fold change vs veh, ZNF268 / Fold change vs veh, ZNF507 / RFU, DGCR2 / Fold change vs veh, DGCR2 / RFU, WDSUB1 / Fold change vs veh, WDSUB1 / Fold change vs veh, HSP90B1 /// MIR3652 / RFU, ADSS / Fold change vs veh, ADSS / RFU, GK / Fold change vs veh, GK / RFU, ZNF148 / Fold change vs veh, ZNF148 / RFU, TAF9 / Fold change vs veh, TAF9 / RFU, SLC1A5 / Fold change vs veh, SLC1A5 / RFU, SLMO2 / Fold change vs veh, SLMO2 / RFU, ABCC4 / Fold change vs veh, ABCC4 / RFU, LOC101060439 /// RAP1B / Fold change vs veh, LOC101060439 /// RAP1B / RFU, RFX7 / Fold change vs veh, RFX7 / RFU, GTPBP10 / Fold change vs veh, GTPBP10 / RFU, CNEP1R1 / Fold change vs veh, CNEP1R1 / RFU, BIVM-ERCC5 /// ERCC5 / Fold change vs veh, BIVM-ERCC5 /// ERCC5 / RFU, ILF3 / Fold change vs veh, ILF3 / RFU 11762660_at / Fold change /veh 11762660_at / RFU VCAN (11757783_s_at) / Fold change /veh VCAN (11757783_s_at) / RFU DDX43 (11728927_at) / Fold change /veh DDX43 (11728927_at) / RFU KRT8 (11758188_x_at) / Fold change /veh KRT8 (11758188_x_at) / RFU NKD1 (11759106_at) / Fold change /veh NKD1 (11759106_at) / RFU SRD5A1 (11742802_a_at) / Fold change /veh SRD5A1 (11742802_a_at) / RFU TPSAB1 /// TPSB2 (11721975_s_at) / Fold change /veh TPSAB1 /// TPSB2 (11721975_s_at) / RFU GSTM3 (11746129_a_at) / Fold change /veh GSTM3 (11746129_a_at) / RFU IL23R (11737362_x_at) / Fold change /veh IL23R (11737362_x_at) / RFU TMEM51 (11727254_a_at) / Fold change /veh TMEM51 (11727254_a_at) / RFU PIWIL2 (11732686_x_at) / Fold change /veh PIWIL2 (11732686_x_at) / RFU ORM1 (11744905_x_at) / Fold change /veh ORM1 (11744905_x_at) / RFU CCDC152 (11743942_at) / Fold change /veh CCDC152 (11743942_at) / RFU ECM1 (11717891_a_at) / Fold change /veh ECM1 (11717891_a_at) / RFU IL23R (11748794_a_at) / Fold change /veh IL23R (11748794_a_at) / RFU TNFAIP8L3 (11732012_x_at) / Fold change /veh TNFAIP8L3 (11732012_x_at) / RFU MBOAT4 (11741988_at) / Fold change /veh MBOAT4 (11741988_at) / RFU 11764193_at / Fold change /veh 11764193_at / RFU TMEM53 (11763286_at) / Fold change /veh TMEM53 (11763286_at) / RFU MAGEB2 (11727129_at) / Fold change /veh MAGEB2 (11727129_at) / RFU TMEM200A (11744735_a_at) / Fold change /veh TMEM200A (11744735_a_at) / RFU CCDC152 (11751479_a_at) / Fold change /veh CCDC152 (11751479_a_at) / RFU FAM211A (11726209_a_at) / Fold change /veh FAM211A (11726209_a_at) / RFU RGS16 (11746705_a_at) / Fold change /veh RGS16 (11746705_a_at) / RFU VCAN (11755009_s_at) / Fold change /veh VCAN (11755009_s_at) / RFU RHOB (11743442_s_at) / Fold change /veh RHOB (11743442_s_at) / RFU RGS16 (11720943_a_at) / Fold change /veh RGS16 (11720943_a_at) / RFU RGS16 (11720944_at) / Fold change /veh RGS16 (11720944_at) / RFU, VPS4B / Fold change vs veh, VPS4B / RFU, CREB1 / Fold change vs veh, CREB1 / RFU, DNAJC13 / Fold change vs veh, DNAJC13 / RFU, GNAQ / Fold change vs veh, GNAQ / RFU, CDK5R1 / Fold change vs veh, CDK5R1 / RFU, ZRANB3 / Fold change vs veh, ZRANB3 / RFU, CUL4A / Fold change vs veh, CUL4A / RFU, CCNY / Fold change vs veh, CCNY / RFU, UFL1 / Fold change vs veh, UFL1 / RFU, COG3 / Fold change vs veh, COG3 / RFU, DIAPH2 / Fold change vs veh, DIAPH2 / RFU, SKA2 / Fold change vs veh, SKA2 / RFU, AFF3 / Fold change vs veh, AFF3 / RFU, LMF1 / Fold change vs veh, LMF1 / RFU, IPO11 / Fold change vs veh, IPO11 / RFU, DFFB / Fold change vs veh, DFFB / RFU, FOXP1 / Fold change vs veh, FOXP1 / RFU, CARD8 / Fold change vs veh, CARD8 / RFU, STRN3 / Fold change vs veh, STRN3 / RFU, ADK / Fold change vs veh, ADK / RFU, RASSF2 / Fold change vs veh, RASSF2 / RFU, WIPF1 / Fold change vs veh, WIPF1 / RFU, LARP1B / Fold change vs veh, LARP1B / RFU, RASA1 / Fold change vs veh, RASA1 / RFU, RB1 / Fold change vs veh, RB1 / RFU, PPFIA1 / Fold change vs veh, PPFIA1 / RFU, MAT2A / Fold change vs veh, MAT2A / RFU, CCT5 / Fold change vs veh, CCT5 / RFU, WDR92 / Fold change vs veh, WDR92 / RFU, CUX1 / Fold change vs veh, CUX1 / RFU, TTC7A / Fold change vs veh, TTC7A / RFU, TMEM135 / Fold change vs veh, TMEM135 / RFU, DEPTOR / Fold change vs veh, DEPTOR / RFU, CPM / Fold change vs veh, CPM / RFU, DNAJB6 / Fold change vs veh, DNAJB6 / RFU, CACNA2D3 / Fold change vs veh, CACNA2D3 / RFU, DTX4 / Fold change vs veh, DTX4 / RFU, TFCP2 / Fold change vs veh, TFCP2 / RFU, GMCL1 /// GMCL1P1 / Fold change vs veh, GMCL1 /// GMCL1P1 / RFU, AEBP2 / Fold change vs veh, AEBP2 / RFU, SNHG1 /// SNORD22 /// SNORD25 /// SNORD26 /// SNORD27 /// SNORD28 /// SNORD29 /// SNORD31 / Fold change vs veh, SNHG1 /// SNORD22 /// SNORD25 /// SNORD26 /// SNORD27 /// SNORD28 /// SNORD29 /// SNORD31 / Fold change (Aza/veh), C12orf56 (ProbeSet 11735607_a_at) / Fold change (ACY-1035/veh), C12orf56 (ProbeSet 11735607_a_at) / Fold change (Aza/veh), FGFR1OP (ProbeSet 11751329_s_at) / Fold change (ACY-1035/veh), FGFR1OP (ProbeSet 11751329_s_at) / Fold change (Aza/veh), VPS36 (ProbeSet 11739960_a_at) / Fold change (ACY-1035/veh), VPS36 (ProbeSet 11739960_a_at) / RFU SYPL1 (11715823_x_at) / Fold change /veh SYPL1 (11715823_x_at) / RFU IGFBP7 (11715501_s_at) / Fold change /veh IGFBP7 (11715501_s_at) / RFU REEP3 (11722064_at) / Fold change /veh REEP3 (11722064_at) / RFU IGLL1 (11728026_x_at) / Fold change /veh IGLL1 (11728026_x_at): dose or concentration left out as unconfirmed
# Details: MV-4-11 cells, 48 hours
smiles,measurement,value
Nc1ccc(-c2cccs2)cc1NC(=O)c1ccc2c(c1)cc(C1CC1)n2CCN1CCOCC1 [ACY-1035],RFU CMKLR1 (11741424_a_at),17.99 RFU
